Measurements reported in publication PMC3474704 (Clinical cancer research : an official journal of the …, 2012).
Where two headings read alike, the source gives them in different places.

Legend:
FLT3 = FLT3 (Homo sapiens, UniProt P36888); assay: FLT3 IC50 determination; assay type: biochemical
120-140 human kinases = assay: In vitro kinase profiling at 1 and 10 μM, ATP at Km; assay type: biochemical
AMPK = assay: Kinase profiling at 1 μM: AMPK; assay type: biochemical, human
NUAK1 = NUAK1 (Homo sapiens, UniProt O60285); assay: Kinase profiling at 1 μM: NUAK1; assay type: biochemical
Sequence of NUAK1 (O60285 whole entry): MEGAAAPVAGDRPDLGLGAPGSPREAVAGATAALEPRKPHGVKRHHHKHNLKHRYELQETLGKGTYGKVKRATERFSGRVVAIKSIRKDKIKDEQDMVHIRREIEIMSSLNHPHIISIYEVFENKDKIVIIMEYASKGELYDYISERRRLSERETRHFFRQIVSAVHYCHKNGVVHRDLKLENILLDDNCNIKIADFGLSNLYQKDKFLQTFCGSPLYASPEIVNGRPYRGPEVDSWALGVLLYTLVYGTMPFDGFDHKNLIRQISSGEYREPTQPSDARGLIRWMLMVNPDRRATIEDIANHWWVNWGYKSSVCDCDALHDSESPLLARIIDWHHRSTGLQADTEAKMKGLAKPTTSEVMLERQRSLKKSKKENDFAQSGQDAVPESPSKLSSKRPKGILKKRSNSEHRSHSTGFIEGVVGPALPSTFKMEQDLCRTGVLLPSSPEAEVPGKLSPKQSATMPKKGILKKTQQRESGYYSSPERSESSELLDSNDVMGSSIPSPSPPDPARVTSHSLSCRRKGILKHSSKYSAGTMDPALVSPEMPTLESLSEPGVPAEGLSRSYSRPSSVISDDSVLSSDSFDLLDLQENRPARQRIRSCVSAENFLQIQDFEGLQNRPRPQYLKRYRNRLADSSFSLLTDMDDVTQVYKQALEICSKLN

CHK1 = target: T1, CHK1 (Homo sapiens, UniProt O14757); assay: Cell-based ELISA for G2 checkpoint abrogation
T1 sequence (O14757 1-476): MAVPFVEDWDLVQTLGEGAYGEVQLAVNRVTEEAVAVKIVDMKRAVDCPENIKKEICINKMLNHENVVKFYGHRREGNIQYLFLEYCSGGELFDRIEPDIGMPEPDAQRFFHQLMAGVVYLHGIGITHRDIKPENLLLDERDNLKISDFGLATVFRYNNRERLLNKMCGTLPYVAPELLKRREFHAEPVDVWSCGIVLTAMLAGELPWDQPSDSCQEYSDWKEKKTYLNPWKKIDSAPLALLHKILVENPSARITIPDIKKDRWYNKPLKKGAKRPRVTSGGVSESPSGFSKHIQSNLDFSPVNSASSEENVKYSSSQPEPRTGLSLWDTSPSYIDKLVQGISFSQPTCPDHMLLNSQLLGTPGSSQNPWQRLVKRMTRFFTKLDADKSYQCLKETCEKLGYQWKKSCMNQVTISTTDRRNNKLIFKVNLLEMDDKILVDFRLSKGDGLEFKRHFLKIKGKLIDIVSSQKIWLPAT

[1] = test system: pS296, pS317 and pS345 CHK1; assay: Western blotting of CHK1 phosphorylation biomarkers in HT29 cells; assay type: cell-based, human; conditions: SN38, up to 5μM
[2] = Plasma protein binding by ultra filtration; assay type: in vitro ADME; conditions: mouse
Calu6 xenografts = assay: Calu6 xenograft growth delay, combination with gemcitabine; assay type: in vivo, mouse
Calu6 = assay: cells; conditions: Homo sapiens, Calu-6, 96 h

Sequence of FLT3 (P36888 27-993): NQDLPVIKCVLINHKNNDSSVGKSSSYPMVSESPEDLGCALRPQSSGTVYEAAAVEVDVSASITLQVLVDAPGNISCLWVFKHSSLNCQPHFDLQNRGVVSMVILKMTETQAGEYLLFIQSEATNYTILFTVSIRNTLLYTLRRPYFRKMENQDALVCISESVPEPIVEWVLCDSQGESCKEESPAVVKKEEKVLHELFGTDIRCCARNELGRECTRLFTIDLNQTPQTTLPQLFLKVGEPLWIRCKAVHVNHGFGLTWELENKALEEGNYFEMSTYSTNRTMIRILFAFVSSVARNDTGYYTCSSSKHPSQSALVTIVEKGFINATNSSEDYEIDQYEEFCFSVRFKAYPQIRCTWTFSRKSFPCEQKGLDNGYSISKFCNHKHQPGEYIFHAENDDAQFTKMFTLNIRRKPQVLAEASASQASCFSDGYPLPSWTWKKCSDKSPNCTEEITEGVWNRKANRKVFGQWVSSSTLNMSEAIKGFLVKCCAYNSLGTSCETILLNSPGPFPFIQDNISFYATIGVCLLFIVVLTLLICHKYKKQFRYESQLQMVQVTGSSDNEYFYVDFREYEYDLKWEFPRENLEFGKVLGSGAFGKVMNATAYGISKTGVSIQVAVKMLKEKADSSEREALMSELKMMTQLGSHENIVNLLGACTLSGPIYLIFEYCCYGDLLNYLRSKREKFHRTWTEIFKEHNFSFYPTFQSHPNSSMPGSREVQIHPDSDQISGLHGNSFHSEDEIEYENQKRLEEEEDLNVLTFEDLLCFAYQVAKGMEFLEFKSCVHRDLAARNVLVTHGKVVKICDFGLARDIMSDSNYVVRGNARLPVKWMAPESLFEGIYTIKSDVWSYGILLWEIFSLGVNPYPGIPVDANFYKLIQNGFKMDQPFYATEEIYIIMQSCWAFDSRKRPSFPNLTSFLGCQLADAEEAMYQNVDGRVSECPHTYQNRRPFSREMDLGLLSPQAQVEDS

## COc1cc(Nc2cnc(C#N)c(O[C@H](C)CN(C)C)n2)ncc1-c1cnn(C)c1 [CCT244747]
FLT3
  IC50: 600 nM
FLT3; versus CHK1
  selectivity against FLT3: 75 fold
120-140 human kinases; 1μM, panel of 140 kinases
  number of kinases with >50% inhibition: 8
120-140 human kinases; 10μM, total of 121 kinases
  number of kinases inhibited by ≥80%: 9
AMPK
  inhibition: > 50%
NUAK1
  inhibition at 1 µM: > 50%
CHK1
  IC50: 29 to 170 nM
[1]
  abolition of S317 and S345 CHK1 phosphorylation: neither phosphorylation was completely abolished
[2]
  fraction unbound at 1 h, 10 μM: 0.244
Calu6 xenografts; Calu6 xenografts, 75mg/kg p.o. added to gemcitabine 100mg/kg i.v.
  growth delay: 15.9 days
Calu6 xenografts; Calu6 xenografts, CCT244747 75mg/kg p.o. or gemcitabine 100mg/kg i.v. alone
  antitumor activity of each agent alone: minimal activity
Calu6 xenografts; Calu6 xenografts, P<0.001
  increase in growth delay, combination versus gemcitabine alone: 8.7 days
Calu6 xenografts; combination with gemcitabine, day 8
  nadir of body weight loss: 5.4%
MiaPaCa-2; Gem
  Potentiation Index (PI): 16±6.3 (n=5)
MiaPaCa-2; SN38
  Potentiation Index (PI): 5.0±0.82 (n=5)
Calu6
  GI50: 330 ± 51 nM
